# Numbers after ± are expanded uncertainties.
# Experiment: activity coefficient (dimensionless); of the first substance listed, at infinite dilution; xn = mol fraction of the nth substance listed
# Conditions: Liquid, Chromatography, x1 = 0
SMILES,activity coefficient (322.85 K),activity coefficient (332.65 K),activity coefficient (343.15 K)
CCC(C)CC [3-methylpentane] + CCCCCCCC[N+](CCCCCCCC)(CCCCCCCC)CCCCCCCC.O=S(=O)([N-]S(=O)(=O)C(F)(F)F)C(F)(F)F,1.22 ± 0.04,1.22 ± 0.04,1.21 ± 0.04
CCC(C)CC [3-methylpentane] + CCCC[N+](C)(CCCC)CCCC.O=S(=O)([N-]S(=O)(=O)C(F)(F)F)C(F)(F)F,6.1 ± 0.28,6.17 ± 0.28,5.86 ± 0.27
CC#N [acetonitrile] + CCCCCCCCCC[N+](C)(C)C.O=S(=O)([N-]S(=O)(=O)C(F)(F)F)C(F)(F)F,0.44 ± 0.03,0.44 ± 0.03,0.42 ± 0.03
CC#N [acetonitrile] + CCCCCCCC[N+](C)(C)C.O=S(=O)([N-]S(=O)(=O)C(F)(F)F)C(F)(F)F,0.48 ± 0.03,0.46 ± 0.03,0.44 ± 0.03
CC#N [acetonitrile] + CCCCCCCC[N+](CCCCCCCC)(CCCCCCCC)CCCCCCCC.O=S(=O)([N-]S(=O)(=O)C(F)(F)F)C(F)(F)F,0.5 ± 0.03,0.49 ± 0.03,0.49 ± 0.03
CC#N [acetonitrile] + CCCC[N+](C)(CCCC)CCCC.O=S(=O)([N-]S(=O)(=O)C(F)(F)F)C(F)(F)F,0.49 ± 0.03,0.5 ± 0.03,0.48 ± 0.03
c1ccccc1 [benzene] + CCCCCCCCCC[N+](C)(C)C.O=S(=O)([N-]S(=O)(=O)C(F)(F)F)C(F)(F)F,0.71 ± 0.03,0.73 ± 0.03,0.72 ± 0.03
c1ccccc1 [benzene] + CCCCCCCC[N+](C)(C)C.O=S(=O)([N-]S(=O)(=O)C(F)(F)F)C(F)(F)F,0.73 ± 0.03,0.74 ± 0.03,0.73 ± 0.03
c1ccccc1 [benzene] + CCCCCCCC[N+](CCCCCCCC)(CCCCCCCC)CCCCCCCC.O=S(=O)([N-]S(=O)(=O)C(F)(F)F)C(F)(F)F,0.4 ± 0.03,0.41 ± 0.03,0.41 ± 0.03
c1ccccc1 [benzene] + CCCC[N+](C)(CCCC)CCCC.O=S(=O)([N-]S(=O)(=O)C(F)(F)F)C(F)(F)F,0.9 ± 0.03,0.93 ± 0.03,0.92 ± 0.03
CCCCO [butan-1-ol] + CCCCCCCCCC[N+](C)(C)C.O=S(=O)([N-]S(=O)(=O)C(F)(F)F)C(F)(F)F,1.7 ± 0.07,1.55 ± 0.06,1.38 ± 0.05
CCCCO [butan-1-ol] + CCCCCCCC[N+](C)(C)C.O=S(=O)([N-]S(=O)(=O)C(F)(F)F)C(F)(F)F,2.01 ± 0.09,1.8 ± 0.08,1.59 ± 0.06
CCCCO [butan-1-ol] + CCCCCCCC[N+](CCCCCCCC)(CCCCCCCC)CCCCCCCC.O=S(=O)([N-]S(=O)(=O)C(F)(F)F)C(F)(F)F,3.08 ± 0.14,1.12 ± 0.03,1.04 ± 0.03
CCCCO [butan-1-ol] + CCCC[N+](C)(CCCC)CCCC.O=S(=O)([N-]S(=O)(=O)C(F)(F)F)C(F)(F)F,2.1 ± 0.1,1.89 ± 0.08,1.73 ± 0.07
CCCC=O [butanal] + CCCCCCCCCC[N+](C)(C)C.O=S(=O)([N-]S(=O)(=O)C(F)(F)F)C(F)(F)F,0.47 ± 0.03,0.53 ± 0.03,0.51 ± 0.03
CCCC=O [butanal] + CCCCCCCC[N+](CCCCCCCC)(CCCCCCCC)CCCCCCCC.O=S(=O)([N-]S(=O)(=O)C(F)(F)F)C(F)(F)F,,,0.31 ± 0.04
CCC(C)=O [butanone] + CCCCCCCCCC[N+](C)(C)C.O=S(=O)([N-]S(=O)(=O)C(F)(F)F)C(F)(F)F,0.33 ± 0.04,0.32 ± 0.04,0.29 ± 0.04
CCC(C)=O [butanone] + CCCCCCCC[N+](C)(C)C.O=S(=O)([N-]S(=O)(=O)C(F)(F)F)C(F)(F)F,0.41 ± 0.03,0.38 ± 0.03,0.34 ± 0.04
CCC(C)=O [butanone] + CCCCCCCC[N+](CCCCCCCC)(CCCCCCCC)CCCCCCCC.O=S(=O)([N-]S(=O)(=O)C(F)(F)F)C(F)(F)F,0.29 ± 0.04,0.28 ± 0.04,0.26 ± 0.04
CCC(C)=O [butanone] + CCCC[N+](C)(CCCC)CCCC.O=S(=O)([N-]S(=O)(=O)C(F)(F)F)C(F)(F)F,0.4 ± 0.03,0.38 ± 0.03,0.35 ± 0.04
C1CCCCCC1 [cycloheptane] + CCCCCCCCCC[N+](C)(C)C.O=S(=O)([N-]S(=O)(=O)C(F)(F)F)C(F)(F)F,7.7 ± 0.35,10.8 ± 0.49,14.6 ± 0.67
C1CCCCCC1 [cycloheptane] + CCCCCCCC[N+](C)(C)C.O=S(=O)([N-]S(=O)(=O)C(F)(F)F)C(F)(F)F,10.8 ± 0.5,14.7 ± 0.68,19.4 ± 0.9
C1CCCCCC1 [cycloheptane] + CCCCCCCC[N+](CCCCCCCC)(CCCCCCCC)CCCCCCCC.O=S(=O)([N-]S(=O)(=O)C(F)(F)F)C(F)(F)F,2.21 ± 0.1,3.16 ± 0.14,4.37 ± 0.2

SMILES,activity coefficient (322.85 K),activity coefficient (332.65 K),activity coefficient (343.15 K)
C1CCCCCC1 [cycloheptane] + CCCC[N+](C)(CCCC)CCCC.O=S(=O)([N-]S(=O)(=O)C(F)(F)F)C(F)(F)F,12.4 ± 0.57,17.7 ± 0.82,23.9 ± 1.1
C1CCCCC1 [cyclohexane] + CCCCCCCCCC[N+](C)(C)C.O=S(=O)([N-]S(=O)(=O)C(F)(F)F)C(F)(F)F,2.9 ± 0.13,2.96 ± 0.13,2.8 ± 0.13
C1CCCCC1 [cyclohexane] + CCCCCCCC[N+](C)(C)C.O=S(=O)([N-]S(=O)(=O)C(F)(F)F)C(F)(F)F,4.08 ± 0.19,3.84 ± 0.17,3.57 ± 0.16
C1CCCCC1 [cyclohexane] + CCCCCCCC[N+](CCCCCCCC)(CCCCCCCC)CCCCCCCC.O=S(=O)([N-]S(=O)(=O)C(F)(F)F)C(F)(F)F,0.95 ± 0.03,0.94 ± 0.03,0.92 ± 0.03
C1CCCCC1 [cyclohexane] + CCCC[N+](C)(CCCC)CCCC.O=S(=O)([N-]S(=O)(=O)C(F)(F)F)C(F)(F)F,4.74 ± 0.22,4.71 ± 0.21,4.44 ± 0.2
CCCCCCCCCC [decane] + CCCCCCCCCC[N+](C)(C)C.O=S(=O)([N-]S(=O)(=O)C(F)(F)F)C(F)(F)F,10.1 ± 0.46,9.82 ± 0.45,9.32 ± 0.43
CCCCCCCCCC [decane] + CCCCCCCC[N+](C)(C)C.O=S(=O)([N-]S(=O)(=O)C(F)(F)F)C(F)(F)F,19.3 ± 0.89,17.9 ± 0.83,16.2 ± 0.75
CCCCCCCCCC [decane] + CCCCCCCC[N+](CCCCCCCC)(CCCCCCCC)CCCCCCCC.O=S(=O)([N-]S(=O)(=O)C(F)(F)F)C(F)(F)F,2.3 ± 0.1,2.32 ± 0.11,2.21 ± 0.1
CCCCCCCCCC [decane] + CCCC[N+](C)(CCCC)CCCC.O=S(=O)([N-]S(=O)(=O)C(F)(F)F)C(F)(F)F,19.6 ± 0.91,19.2 ± 0.89,17.8 ± 0.82
ClCCl [dichloromethane] + CCCCCCCCCC[N+](C)(C)C.O=S(=O)([N-]S(=O)(=O)C(F)(F)F)C(F)(F)F,0.51 ± 0.03,0.55 ± 0.03,0.56 ± 0.03
ClCCl [dichloromethane] + CCCCCCCC[N+](C)(C)C.O=S(=O)([N-]S(=O)(=O)C(F)(F)F)C(F)(F)F,0.51 ± 0.03,0.53 ± 0.03,0.54 ± 0.03
ClCCl [dichloromethane] + CCCCCCCC[N+](CCCCCCCC)(CCCCCCCC)CCCCCCCC.O=S(=O)([N-]S(=O)(=O)C(F)(F)F)C(F)(F)F,0.29 ± 0.04,0.3 ± 0.04,0.31 ± 0.04
ClCCl [dichloromethane] + CCCC[N+](C)(CCCC)CCCC.O=S(=O)([N-]S(=O)(=O)C(F)(F)F)C(F)(F)F,0.66 ± 0.03,0.69 ± 0.03,0.7 ± 0.03
CCOCC [diethyl ether] + CCCCCCCCCC[N+](C)(C)C.O=S(=O)([N-]S(=O)(=O)C(F)(F)F)C(F)(F)F,1.23 ± 0.04,1.24 ± 0.04,1.21 ± 0.04
CCOCC [diethyl ether] + CCCCCCCC[N+](C)(C)C.O=S(=O)([N-]S(=O)(=O)C(F)(F)F)C(F)(F)F,1.6 ± 0.06,1.57 ± 0.06,1.53 ± 0.06
CCOCC [diethyl ether] + CCCCCCCC[N+](CCCCCCCC)(CCCCCCCC)CCCCCCCC.O=S(=O)([N-]S(=O)(=O)C(F)(F)F)C(F)(F)F,0.71 ± 0.03,0.71 ± 0.03,0.71 ± 0.03
CCOCC [diethyl ether] + CCCC[N+](C)(CCCC)CCCC.O=S(=O)([N-]S(=O)(=O)C(F)(F)F)C(F)(F)F,1.65 ± 0.07,1.67 ± 0.07,1.65 ± 0.07
CC(C)OC(C)C [diisopropyl ether] + CCCCCCCCCC[N+](C)(C)C.O=S(=O)([N-]S(=O)(=O)C(F)(F)F)C(F)(F)F,2.19 ± 0.1,2.32 ± 0.11,2.3 ± 0.1
CC(C)OC(C)C [diisopropyl ether] + CCCCCCCC[N+](C)(C)C.O=S(=O)([N-]S(=O)(=O)C(F)(F)F)C(F)(F)F,3.22 ± 0.15,3.15 ± 0.14,3.08 ± 0.14
CC(C)OC(C)C [diisopropyl ether] + CCCCCCCC[N+](CCCCCCCC)(CCCCCCCC)CCCCCCCC.O=S(=O)([N-]S(=O)(=O)C(F)(F)F)C(F)(F)F,1.08 ± 0.03,1.08 ± 0.03,1.08 ± 0.03
CC(C)OC(C)C [diisopropyl ether] + CCCC[N+](C)(CCCC)CCCC.O=S(=O)([N-]S(=O)(=O)C(F)(F)F)C(F)(F)F,3.31 ± 0.15,3.35 ± 0.15,3.35 ± 0.15
CCCCCCCCCCCC [dodecane] + CCCCCCCCCC[N+](C)(C)C.O=S(=O)([N-]S(=O)(=O)C(F)(F)F)C(F)(F)F,15.1 ± 0.7,14.8 ± 0.68,13.8 ± 0.63
